Among the data in patent US12319689B2, “Methyl- and trifluoromethyl-containing disubstituted sulfonamide selective BCL-2 inhibitor” (CHIA TAI TIANQING PHARMACEUTICAL GROUP CO., LTD., priority 2019, dated 2025) are IC50 values, retold here.

One assay has as its system RS4;11 cells. Nature of the assay: Inhibition of proliferation of RS4;11 human acute lymphocytic leukemia cells (CCK-8). It is filed as cell-based. To be noted: 72 h compound exposure, CCK-8, 5% serum. The protocol:
RS4;11 cells (from ATCC) in logarithmic growth phase and good cell condition were added to a centrifuge tube and centrifuged at 1500 rpm for 3 min in a low speed centrifuge. The supernatant was discarded, and 5 mL of complete medium (RPMI basic medium+10% FBS) was added using a pipette for cell resuspension. The cells were counted using a cell counter, diluted with complete medium to a cell density of 2×10^5 cells/mL, and an equivalent amount of RPMI basic medium was added to adjust the serum concentration to 5% and the cell density to 1×10^5 cells/mL for plate seeding. The cells were seeded on a 96-well plate at 100 μL/well using a pipettor, and incubated in an incubator at 37° C., 5% CO2 with saturated humidity. After 24 h of incubation, compounds were loaded using a nanoliter pipettor, 2 duplicate wells were set for each concentration, and cells without compound were used as negative controls. […] Inhibition rate (%)=(mean value of negative control group−mean value of experimental group)/(mean value of negative control group−mean value of blank group)×100%. A dose-response curve was fitted by four-parameter analysis, with the logarithm of compound concentration serving as abscissa and inhibition rate serving as ordinate, so that IC50 was calculated (Table 1).

The next assay concerns the target T1, BCL-2/BAK (Homo sapiens, UniProt P10415).
T1 construct: purchased Cisbio 63ADK000CB01PEG
Nature of the assay: Inhibitory activity for BCL-2/BAK binding (Cisbio BCL-2/BAK (BH3) binding assay kit). The protocol: 500 nM Tag1-BCL-2 protein stock solution and 20 μM Tag2-BAK protein stock solution were diluted to 5 nM and 120 nM respectively with dilution buffer in kit (name: BCL-2/BAK (BH3) BINDING ASSAY KITS, cat. No.: 63ADK000CB01PEG, from Cisbio). 5 μL of Tag1-BCL-2 protein diluent was added to each well, then test compounds dissolved with DMSO were added to the wells with a nanoliter pipettor, allowing the final compound concentrations to be 200 nM to 0.0488 nM (4-fold gradient for 7 concentrations in total). Blank control wells (without enzyme) and negative control wells (with enzyme, plus vehicle DMSO) were set, and 2 replicate wells were set. Finally, 5 μL of Tag2-BAK protein diluent was added to each well, and the mixture was mixed well by centrifugation and incubated at 25° C. for 15 min. 100× anti-Tag1-Eu^3+ and 100× anti-Tag2-XL665 were both diluted to 1× working concentration with the detection buffer in the kit. Anti-Tag1-Eu^3+ and anti-Tag2-XL665 were mixed well in a 1:1 ratio, and the mixture was added to wells at 5 μL/well, and incubated at 25° C. for 2 h or more. The plate was read using a PE Envision multi-functional microplate reader ([…], emission: 665 nm) and IC50 (shown in Table 2) was calculated by four-parameter fitting.

In the next assay the target is T2, BCL-XL/BAK (Homo sapiens, UniProt Q07817).
T2 construct: purchased Cisbio 63ADK000CB04PEG
Nature of the assay: Inhibitory activity for BCL-XL/BAK binding (Cisbio BCL-XL/BAK (BH3) binding assay kit). The protocol: 300 nM Tag1-BCL-XL protein stock solution and 10 μM Tag2-BAK protein stock solution were diluted to 2 nM and 80 nM respectively with dilution buffer in kit (name: BCL-XL/BAK (BH3) BINDING ASSAY KITS, cat. No.: 63ADK000CB04PEG, from Cisbio). 5 μL of Tag1-BCL-XL protein diluent was added to each well, then different test compounds dissolved with DMSO were added to the wells with a nanoliter pipettor, allowing the final compound concentrations to be 2000 nM to 0.488 nM (4-fold gradient for 7 concentrations in total). Blank control wells (without enzyme) and negative control wells (with enzyme, plus vehicle DMSO) were set, and 2 replicate wells were set. Finally, 5 μL of Tag2-BAK protein diluent was added to each well, and the mixture was mixed well by centrifugation and incubated at 25° C. for 15 min. 100× anti-Tag1-Eu^3+ and 100× anti-Tag2-XL665 were both diluted to 1× working concentration with the detection buffer in the kit. Anti-Tag1-Eu^3+ and anti-Tag2-XL665 were mixed well in a 1:1 ratio, and the mixture was added to wells at 5 μL/well, and incubated at 25° C. for 2 h or more. The plate was read using a PE Envision multi-functional microplate reader ([…], emission: 665 nm) and IC50 (shown in Table 2) was calculated by four-parameter fitting.

T2 sequence (Q07817 whole entry): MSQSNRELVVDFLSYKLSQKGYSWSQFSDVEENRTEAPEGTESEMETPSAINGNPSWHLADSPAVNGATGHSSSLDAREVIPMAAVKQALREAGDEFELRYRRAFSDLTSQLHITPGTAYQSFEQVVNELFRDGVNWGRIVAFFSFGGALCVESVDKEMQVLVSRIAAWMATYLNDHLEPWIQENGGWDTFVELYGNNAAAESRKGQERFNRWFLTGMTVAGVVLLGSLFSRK
T1 sequence (P10415 whole entry): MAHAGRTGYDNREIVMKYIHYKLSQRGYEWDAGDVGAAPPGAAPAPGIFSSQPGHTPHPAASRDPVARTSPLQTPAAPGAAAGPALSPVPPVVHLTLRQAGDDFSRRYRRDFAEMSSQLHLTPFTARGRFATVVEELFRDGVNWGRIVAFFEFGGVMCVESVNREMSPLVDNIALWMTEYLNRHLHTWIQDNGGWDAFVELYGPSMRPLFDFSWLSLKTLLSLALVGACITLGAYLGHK

Turning to `Cc1cc(C(F)(F)F)ccc1C1=C(CN2CCN(c3ccc(C(=O)NS(=O)(=O)c4ccc(NC[C@@H]5CN(C(=O)C(C)C)CCO5)c([N+](=O)[O-])c4)c(Oc4cnc5[nH]ccc5c4)c3)CC2)CCC(C)(C)C1` [Compound 21-1, (R)-4-(4-{[2-(2-methyl-4-trifluoromethylphenyl)-4,4-dimethylcyclohex-1-enyl]methyl}-piperazin-1-yl)-N-({3-nitro-4-[((4-isobutyrylmorpholin-2-yl)methyl)amino]phenyl}sulfonyl)-2-(1H-pyrrolo[2,3-b]pyridin-5-yloxy)-benzamide], the IC50 in the assay with RS4;11 cells came to 5.5 nM; at BCL-2/BAK, 0.72 nM; at BCL-XL/BAK, 115 nM.

For `Cc1cc(C(F)(F)F)ccc1C1=C(CN2CCN(c3ccc(C(=O)NS(=O)(=O)c4ccc(NC[C@@H]5CCOC5)c([N+](=O)[O-])c4)c(Oc4cnc5[nH]ccc5c4)c3)CC2)CCC(C)(C)C1` [Compound 10-1, (S)-4-(4-{[2-(2-methyl-4-trifluoromethylphenyl)-4,4-dimethylcyclohex-1-enyl]methyl}-piperazin-1-yl)-N-({3-nitro-4-[((tetrahydrofuran-3-yl)methyl)amino]phenyl}sulfonyl)-2-(1H-pyrrolo[2,3-b]pyridin-5-yloxy)-benzamide], the figures for the IC50 on BCL-2/BAK and on BCL-XL/BAK were 1.1 nM and 102 nM, respectively.

On to `Cc1cc(C(F)(F)F)ccc1C1=C(CN2CCN(c3ccc(C(=O)NS(=O)(=O)c4ccc(NC[C@H]5CCOC5)c([N+](=O)[O-])c4)c(Oc4cnc5[nH]ccc5c4)c3)CC2)CCC(C)(C)C1` [Compound 9-1, (R)-4-(4-{[2-(2-methyl-4-trifluoromethylphenyl)-4,4-dimethylcyclohex-1-enyl]methyl}-piperazin-1-yl)-N-({3-nitro-4-[((tetrahydrofuran-3-yl)methyl)amino]phenyl}sulfonyl)-2-(1H-pyrrolo[2,3-b]pyridin-5-yloxy)-benzamide], for which the IC50 on BCL-2/BAK amounted to 1.26 nM; on BCL-XL/BAK it was 219 nM.

As to `Cc1cc(C(F)(F)F)ccc1C1=C(CN2CCN(c3ccc(C(=O)NS(=O)(=O)c4ccc(NC[C@H]5CN(S(C)(=O)=O)CCO5)c([N+](=O)[O-])c4)c(Oc4cnc5[nH]ccc5c4)c3)CC2)CCC(C)(C)C1` [Compound 22-1, (S)-4-(4-{[2-(2-methyl-4-trifluoromethylphenyl)-4,4-dimethylcyclohex-1-enyl]methyl}-piperazin-1-yl)-N-({3-nitro-4-[((4-(methylsulfonyl)morpholin-2-yl)methyl)amino]phenyl}sulfonyl)-2-(1H-pyrrolo[2,3-b]pyridin-5-yloxy)-benzamide], the IC50 amounted to 2.2 nM with RS4;11 cells, 1.31 nM at BCL-2/BAK and 105 nM on BCL-XL/BAK.

Turning to `Cc1cc(C(F)(F)F)ccc1C1=C(CN2CCN(c3ccc(C(=O)NS(=O)(=O)c4ccc(NC[C@@H]5CCCOC5)c([N+](=O)[O-])c4)c(Oc4cnc5[nH]ccc5c4)c3)CC2)CCC(C)(C)C1` [Compound 16-1, (S)-4-(4-{[2-(2-methyl-4-trifluoromethylphenyl)-4,4-dimethylcyclohex-1-enyl]methyl}-piperazin-1-yl)-N-({3-nitro-4-[((tetrahydropyran-3-yl)methyl)amino]phenyl}sulfonyl)-2-(1H-pyrrolo[2,3-b]pyridin-5-yloxy)-benzamide], the IC50 was 2.07 nM at BCL-2/BAK and 144 nM on BCL-XL/BAK.

What is called IC50 is the concentration at which inhibition is half-maximal.
